Measured values: ChEMBL document CHEMBL1158971, “Aromatic Secondary Metabolites from the Sponge Tedania ignis” (J Nat Prod, 1991)

Tests used:
Artemia = assay: Toxicity against brine shrimp assessed as mortality at 25 ppm; format: organism-based; details: in vivo
[1] = Toxicity against brine shrimp assessed as mortality at 25 ppm after 4 hrs; format: organism-based; details: artemia, in vivo; read-out: Activity
[2] = Toxicity against brine shrimp assessed as mortality at 25 ppm after 24 hrs; format: organism-based; details: artemia, in vivo; read-out: Activity
[3] = Toxicity against brine shrimp assessed as mortality at 25 ppm after 8 hrs; format: organism-based; details: artemia, in vivo; read-out: Activity
[4] = Toxicity against brine shrimp assessed as mortality at 25 ppm after 6 hrs; format: organism-based; details: artemia, in vivo; read-out: Activity
Euphorbia esula = assay: Phytotoxicity against Euphorbia esula assessed as necrotic lesions at 5 ug by nicked leaf assay; format: functional

Row | SMILES | Activity (Artemia) | mortality at 4 h, 25 ppm [1] [%] | mortality at 24 h, 25 ppm [2] [%] | mortality at 8 h, 25 ppm [3] [%] | mortality at 6 h, 25 ppm [4] [%] | Activity (Euphorbia esula) [mm]
1 | NC(=O)Cc1ccccc1 | Not Active |  |  |  |  | 
2 | CC(=O)c1nccc2c1[nH]c1ccccc12 |  | 14 | 100 | 43 | 21 | 
3 | O=C(CO)c1c[nH]c2ccccc12 | Not Active |  |  |  |  | 
4 | CC(=O)/C=C/c1c[nH]c2ccccc12 |  | 0 | 39 | 8 | 0 | 
5 | CC(=O)/C=C/Cc1c[nH]c2ccccc12 |  | 0 | 91 | 27 | 0 | 2
6 | CC(=O)/C=C/C(C)=C(\C)c1c[nH]c2ccccc12 |  | 20 | 70 | 20 | 20 | 
7 | Cc1cccc2c1[nH]c1ccccc12 |  | 82 |  |  | 100 | 
8 | CC(=O)/C=C/c1ccc(C)c(C)c1C |  | 0 | 100 | 90 | 50 | 
